Calls of active or inactive are those of the source. The rule behind the calls is not given here.
Molecular target: Sphingosine 1-phosphate receptor 3 (Homo sapiens) (UniProt Q99500)
Test: blockade of S1P-driven S1P3 signaling – cell-based, dose response (AID 484)
Conditions: S1P3-expressing cells, antagonist inhibition of S1P response

Sphingosine 1-phosphate receptor 3 (Homo sapiens), sequence (Q99500 whole entry, looked up): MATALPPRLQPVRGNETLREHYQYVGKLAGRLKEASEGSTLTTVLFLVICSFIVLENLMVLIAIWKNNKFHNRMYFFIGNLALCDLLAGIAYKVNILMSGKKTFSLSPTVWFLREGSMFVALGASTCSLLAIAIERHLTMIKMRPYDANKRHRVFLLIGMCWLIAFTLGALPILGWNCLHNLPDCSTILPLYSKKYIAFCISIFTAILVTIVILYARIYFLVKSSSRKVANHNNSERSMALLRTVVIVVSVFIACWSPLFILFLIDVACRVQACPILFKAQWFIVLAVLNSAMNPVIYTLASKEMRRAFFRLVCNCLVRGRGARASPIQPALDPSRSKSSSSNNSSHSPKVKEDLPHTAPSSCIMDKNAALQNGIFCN

| Compound | IC50 |
| --- | --- |
| COc1ccc(CC2C(=O)NC(=O)N(c3ccccc3)C2=O)c(OC)c1 (stereo unspecified) | > 49.8 µM (inactive) |
| N#CC1=C(N)Oc2cc3c(cc2C1c1ccc(Cl)cc1)OCO3 (stereo unspecified) | inactive |
| O/C(=C\Sc1nnc(Cc2ccccc2)o1)c1ccc(Br)cc1 | > 49.8 µM (inactive) |
| CC1(C)CC(=O)CC(=Nc2ccc(C(=O)O)cc2)C1 | > 49.8 µM (inactive) |
| Cc1ccc(S(=O)(=O)N2CC(=NO)C2)cc1 | > 49.8 µM (inactive) |
| COc1ccc(OC)c(C2C(C(C)=O)=C(O)C(=O)N2CCC(=O)O)c1 (stereo unspecified) | > 49.8 µM (inactive) |
| COC(=O)C1=C(N)Oc2cc(N(C)C)ccc2C1c1ccccc1OC (stereo unspecified) | > 16.6 µM (inactive) |
| CC(=O)C1=C(C)Nc2ncnn2C1c1ccc(Cl)cc1 (stereo unspecified) | > 49.8 µM (inactive) |
| COc1cccc(N2C(=O)C(CC(=O)Nc3ccc(F)cc3)N(C3CCCCC3)C2=O)c1 (stereo unspecified) | > 49.8 µM (inactive) |
| COC(=O)C1=C(N)Oc2cc(C)n(C)c(=O)c2C1c1ccc(Cl)cc1 (stereo unspecified) | > 49.8 µM (inactive) |
| CN1CCN(C(=O)OC2c3nccnc3C(=O)N2c2ccc(Cl)cn2)CC1 (stereo unspecified) | > 49.8 µM (inactive) |
